{"source": "ChEMBL document CHEMBL1130426", "about": "“Probing the mechanism of action and decomposition of amino acid phosphomonoester amidates of antiviral nucleoside prodrugs” (J Med Chem, 1997)", "key": {"CCRF-CEM": {"tested_on": "CCRF-CEM", "assay": "Cytotoxic concentration required to inhibit 50% […] in CEM cells", "assay_type": "functional", "details": "Homo sapiens"}, "[1]": {"assay": "Effective concentration required to inhibit 50% of HIV-1 in peripheral blood mononuclear cells (PBMC)", "assay_type": "functional, Homo sapiens"}, "[2]": {"assay": "Cytotoxic concentration required to inhibit 50% […] in peripheral blood mononuclear cells (PBMC)", "assay_type": "functional", "details": "Homo sapiens"}}}
{"smiles": "COC(=O)[C@H](Cc1ccccc1)NP(=O)(OC)OCC1OC(n2cc(C)c(=O)[nH]c2=O)CC1F", "note": "(stereo not given in full)", "values": [{"measurement": "CC50", "setting": "CCRF-CEM", "value": "> 100", "unit": "µM"}, {"measurement": "EC50", "setting": "[1]", "value": "> 0.21", "unit": "µM"}, {"measurement": "CC50", "setting": "[2]", "value": "> 100", "unit": "µM"}]}
{"smiles": "COC(=O)[C@H](Cc1c[nH]c2ccccc12)NP(=O)(OC)OCC1OC(n2cc(C)c(=O)[nH]c2=O)CC1F", "note": "(stereo not given in full)", "values": [{"measurement": "CC50", "setting": "CCRF-CEM", "value": "> 100", "unit": "µM"}, {"measurement": "EC50", "setting": "[1]", "value": 0.29, "unit": "µM"}, {"measurement": "CC50", "setting": "[2]", "value": "> 100", "unit": "µM"}]}
{"smiles": "COC(=O)[C@H](Cc1c[nH]c2ccccc12)NP(=O)(O)OC[C@H]1O[C@@H](n2cc(C)c(=O)[nH]c2=O)C[C@@H]1N=[N+]=[N-]", "values": [{"measurement": "CC50", "setting": "CCRF-CEM", "value": "> 100", "unit": "µM"}, {"measurement": "EC50", "setting": "[1]", "value": 0.01, "unit": "µM"}, {"measurement": "CC50", "setting": "[2]", "value": "> 100", "unit": "µM"}]}
{"smiles": "COC(=O)[C@H](Cc1ccccc1)NP(=O)(O)OCC1OC(n2cc(C)c(=O)[nH]c2=O)CC1N=[N+]=[N-]", "note": "(stereo not given in full)", "values": [{"measurement": "CC50", "setting": "CCRF-CEM", "value": "> 100", "unit": "µM"}, {"measurement": "EC50", "setting": "[1]", "value": 0.6, "unit": "µM"}, {"measurement": "CC50", "setting": "[2]", "value": "> 100", "unit": "µM"}]}
{"smiles": "COC(=O)[C@H](Cc1c[nH]c2ccccc12)NP(=O)(OCCC#N)OCC1OC(n2cc(C)c(=O)[nH]c2=O)CC1N=[N+]=[N-]", "note": "(stereo not given in full)", "values": [{"measurement": "CC50", "setting": "CCRF-CEM", "value": "> 100", "unit": "µM"}, {"measurement": "EC50", "setting": "[1]", "value": 0.4, "unit": "µM"}, {"measurement": "CC50", "setting": "[2]", "value": "> 100", "unit": "µM"}]}
{"smiles": "COC(=O)[C@H](Cc1c[nH]c2ccccc12)NP(=O)(O)OCC1OC(n2cc(C)c(=O)[nH]c2=O)CC1F", "note": "(stereo not given in full)", "values": [{"measurement": "CC50", "setting": "CCRF-CEM", "value": 35.1, "unit": "µM"}, {"measurement": "EC50", "setting": "[1]", "value": 0.9, "unit": "µM"}, {"measurement": "CC50", "setting": "[2]", "value": "> 100", "unit": "µM"}]}
{"smiles": "COC(=O)[C@H](Cc1c[nH]c2ccccc12)NP(=O)(OCCC#N)OCC1OC(n2cc(C)c(=O)[nH]c2=O)CC1F", "note": "(stereo not given in full)", "values": [{"measurement": "CC50", "setting": "CCRF-CEM", "value": "> 95.6", "unit": "µM"}, {"measurement": "EC50", "setting": "[1]", "value": 0.2, "unit": "µM"}, {"measurement": "CC50", "setting": "[2]", "value": "> 100", "unit": "µM"}]}
{"smiles": "COC(=O)[C@H](Cc1ccccc1)NP(=O)(OCCC#N)OCC1OC(n2cc(C)c(=O)[nH]c2=O)CC1N=[N+]=[N-]", "note": "(stereo not given in full)", "values": [{"measurement": "CC50", "setting": "CCRF-CEM", "value": "> 100", "unit": "µM"}, {"measurement": "EC50", "setting": "[1]", "value": "> 1", "unit": "µM"}, {"measurement": "CC50", "setting": "[2]", "value": "> 100", "unit": "µM"}]}
{"smiles": "COC(=O)[C@H](Cc1ccccc1)NP(=O)(OC)OCC1OC(n2cc(C)c(=O)[nH]c2=O)CC1N=[N+]=[N-]", "note": "(stereo not given in full)", "values": [{"measurement": "CC50", "setting": "CCRF-CEM", "value": "> 50", "unit": "µM"}, {"measurement": "EC50", "setting": "[1]", "value": 0.09, "unit": "µM"}, {"measurement": "CC50", "setting": "[2]", "value": "> 100", "unit": "µM"}]}
{"smiles": "COC(=O)[C@H](Cc1c[nH]c2ccccc12)NP(=O)(OC)OCC1OC(n2cc(C)c(=O)[nH]c2=O)CC1N=[N+]=[N-]", "note": "(stereo not given in full)", "values": [{"measurement": "CC50", "setting": "CCRF-CEM", "value": "> 50", "unit": "µM"}, {"measurement": "EC50", "setting": "[1]", "value": 0.3, "unit": "µM"}, {"measurement": "CC50", "setting": "[2]", "value": "> 50", "unit": "µM"}]}
{"smiles": "Cc1cn([C@H]2C[C@H](F)[C@@H](CO)O2)c(=O)[nH]c1=O", "note": "[ALOVUDINE]", "values": [{"measurement": "EC50", "setting": "[1]", "value": 0.001, "unit": "µM"}, {"measurement": "CC50", "setting": "[2]", "value": 8.6, "unit": "µM"}]}
{"smiles": "Cc1cn([C@H]2C[C@H](N=[N+]=[N-])[C@@H](CO)O2)c(=O)[nH]c1=O", "note": "[ZIDOVUDINE]", "values": [{"measurement": "CC50", "setting": "CCRF-CEM", "value": 14.3, "unit": "µM"}, {"measurement": "EC50", "setting": "[1]", "value": 0.08, "unit": "µM"}, {"measurement": "CC50", "setting": "[2]", "value": "> 100", "unit": "µM"}]}
